{"source": "patent US10851051B2", "about": "“Compositions and methods for treating multiple myeloma” (THE BROAD INSTITUTE, INC., priority 2015, dated 2020)", "key": {"[1]": {"tested_on": "purified proteins (recombinant proteins, histones)", "assay": "Incubation of labeled compound with purified proteins (SDS-PAGE autoradiography, mass spectrometry)", "assay_type": "biochemical", "settings": "FIG. 12, 13"}, "[2]": {"tested_on": "BRD9647-sensitive cells", "assay": "Tracing of radiolabeled compound in cell extracts (TRIzol, TLC, protein extract)", "assay_type": "cell-based", "settings": "TRIzol or protein extract of treated cells, FIG. 10, 14", "method": "FIG. 10 is a diagram showing results of a tracing experiment with a TRIzol treated extract of cells treated with 10 μM ^14C-BRD9647 for six hours.\nIn FIG. 14, the workflow and results of a ^14C-BRD9647 tracing experiment with protein extract from cells treated with ^14C-BRD9647 are shown."}, "[3]": {"tested_on": "MOLP5 cells", "assay": "Growth inhibition of MOLP5 cells by BRD9647 analogs", "assay_type": "cell-based", "settings": "FIG. 1E; for growth inhibition in MOLP5 cells compared with other analogs: various concentrations", "text": "(§1) BRD9647 was identified in a phenotypic screening of multiple myeloma cells as a growth inhibitor of certain stroma-dependent myeloma cells. […] FIG. 1B is a plot showing viability of multiple myeloma cell lines (primary multiple myeloma (primary MM) cells (with stroma), MOLP5 (with stroma), and MM1S (with stroma)) treated with various concentrations of BRD9647. For these experiments GFP-labeled MOLP5 and MM1S cells were co-cultured with unlabeled primary human bone marrow stromal cells in 384-well plates and exposed to increasing concentrations of BRD9647 for 3 days. At the end of this period, wells were imaged in the GFP channel with the IXMicro automated high-throughput microscope (Molecular Devices), remaining GFP positive cells were quantified using the MetaXpress software (Molecular Devices) and expressed as percentages of DMSO (vehicle) controls. Unlabeled primary MM cells were similar treated with BRD9647 but were stained with the calcein-acetoxymethyl ester dye at the end of the treatment period. The dye fluoresces green inside viable cells that contain esterase enzymes. Viable cells were imaged and quantified similar to GFP-positive myeloma cell-lines using size, shape and staining intensity to distinguish primary MM from stromal cells. FIG. 1C depicts images showing the viability of primary MM and MOLP5 myeloma cell lines that received BRD9647 treatment in the presence and absence of stromal co-culture. […] Viable cells in these experiments after 3 days of compound exposure were measured using the Cell Titer Glo reagent (Promega).\nFluoro-benzoyl analogs of BRD9647 were synthesized and used to study the structure-function relationship between BRD9647 and each compound's ability to inhibit growth in MOLP5 cells. […] The BRD9647 analogs measured were either mono-fluorinated at the para (FIG. 1F), meta (FIG. 1G), or ortho (FIG. 1H) positions of the benzoyl ring, or tri-fluorinated at both meta positions and one ortho position of the ring (FIG. 1I). […]"}, "[4]": {"tested_on": "stroma-dependent myeloma cells (primary MM, MOLP5)", "assay": "Viability of stroma-dependent myeloma cells co-cultured with bone marrow stromal cells (imaging, 3 days)", "assay_type": "cell-based", "settings": "primary MM and MOLP5, FIG. 1B-1C", "text": "as §1, with “cells.” for “cells. FIG. 1C depicts images showing the viability of primary MM and MOLP5 myeloma cell lines that received BRD9647 treatment in the presence and absence of stromal co-culture.”"}, "[5]": {"tested_on": "~100 cell lines from the Broad Institute CTD2 Center", "assay": "Viability of ~100 Broad CTD2 cell lines (Cell Titer Glo, 3 days)", "assay_type": "cell-based", "settings": "3 days compound exposure, FIG. 1D", "text": "as §1, with “cells.” for “cells. FIG. 1C depicts images showing the viability of primary MM and MOLP5 myeloma cell lines that received BRD9647 treatment in the presence and absence of stromal co-culture.”"}, "[6]": {"tested_on": "MOLP5 cells expressing AZIN1-WT", "assay": "Viability of MOLP5 cells expressing wild-type AZIN1 under BRD9647", "assay_type": "cell-based", "settings": "FIG. 4D, 5A; lentiviral AZIN1-WT", "text": "MOLP5 cells sensitive to BRD9647 contained a mutation in AZIN1 (FIG. 4B). The mutation in AZIN1 was S367G. MOLP5 cells raised to be resistant to BRD9647 through serial exposures to increasing concentrations of BRD9647 over 3 months (MOLP5-R) lost the AZIN1 mutation that conferred sensitivity to BRD9647 (FIG. 4C). For experiments in FIGS. 4B and 4C, RNA was isolated from MOLP5 or MOLP5-R cells and converted into complementary DNA (cDNA). The AZIN1 polynucleotide was PCR amplified from cDNA then subject to Sanger sequencing. […] The growth of MOLP5 AZIN1-WT expressing cells in the presence of BRD9647 resembles the growth of untreated MOLP5 cells. For these experiments, lentiviral vectors (pLX_TRC304) encoding the AZIN1 open reading frame with the wild-type sequence or S367G mutant sequence and the puromycin resistance gene were transduced into MOLP5 cells which were then subjected to puromycin selection. […] A schematic of AZIN1 S367G's role in polyamine synthesis is shown at FIG. 6."}, "[7]": {"tested_on": "MOLP5 cells", "assay": "Spermidine rescue of growth inhibition in MOLP5 cells", "assay_type": "cell-based", "settings": "MOLP5 + 10 or 100 μM spermidine, FIG. 7A", "method": "MOLP5 cells with 100 μM spermidine (“MOLP5+100 μM Spd”), and MOLP5 cells with 10 μM spermidine (“MOLP5+10 μM Spd”), each.\nPolyamines such as spermidine rescued the effects of BRD9647. FIG. 7B depicts the structure of spermidine. […] However, BRD9647 may be reactive with spermidine, as polyamines such as spermidine or spermine can directly react with BRD9647 via a benzoylation reaction (FIG. 7C) to form benzoylated polyamine products (FIG. 8 and FIG. 9)."}, "[8]": {"tested_on": "MOLP5 cells", "assay": "Gene expression profiling of treated MOLP5 cells (microarray, GSEA)", "assay_type": "cell-based", "settings": "10 μM, 6 hours", "method": "Gene-expression analysis identified endoplasmic reticulum (ER) stress as an effect of BRD9647 in BRD9647-sensitive cells. […] For this experiment, MOLP5 cells were exposed to DMSO or 10 μM BRD9647 for 6 hours then subject to total RNA extraction using the TRIzol reagent (Thermo-Fisher). RNA was then hybridized to the Affymetrix U133 2.0 Plus oligonucleotide microarray (Affymetrix) and relative transcripts quantified following the manufacturer's protocol. Differential gene expression analysis was conducted using the Comparative Marker Selection module of GenePattern software (www.broadinstitute.org/genepattern). […] As show in FIG. 2C, Connectivity Map (CMap) analysis was conducted (www.broadinstitute.org/cmap) to compare a gene expression profile of […] with known gene expression profiles of over 5000 compounds to identify potential drugs showing a similar mechanism of action. Protein synthesis inhibitors of interest identified by the analysis are shown in boxes (FIG. 2C)."}, "[9]": {"tested_on": "benzoylated lysines on proteins", "assay": "Immunoblot for benzoylated lysines (Kbz antibody) in treated cells", "assay_type": "cell-based", "settings": "versus DMSO controls, FIG. 15"}}, "note": "“Also recorded” adds a separate entry of the source."}
{"smiles": "COc1ccc(N(C(=O)c2ccccc2)S(=O)(=O)c2cc(OC)ccc2OC)cc1", "note": "[^13C-BRD9647]", "values": [{"measurement": "covalent binding to purified proteins", "setting": "[1]", "result": "identify labeled lysines"}]}
{"smiles": "COc1ccc(N(C(=O)c2ccccc2)S(=O)(=O)c2cc(OC)ccc2OC)cc1", "note": "[^14C-BRD9647]", "values": [{"measurement": "protein binding in treated cells", "setting": "[2]", "result": "suggest protein binding or modification of proteins; also recorded: tight protein binding at ˜15 kD molecular weight"}, {"measurement": "covalent binding to purified proteins", "setting": "[1]", "result": "covalent binding of ^14C-BRD9647 with purified proteins was possible"}]}
{"smiles": "COc1ccc(N(C(=O)c2ccc(F)cc2)S(=O)(=O)c2cc(OC)ccc2OC)cc1", "note": "[Compound 1]", "values": [{"measurement": "growth inhibitory activity in MOLP5 cells compared with BRD9647", "setting": "[3]; FIG. 3", "result": "similar, if not increased efficacy to BRD9647"}, {"measurement": "growth inhibition in MOLP5 cells compared with other analogs", "setting": "[3]", "result": "increased growth inhibition at each concentration of active over m-fluorobenzoyl (zb-179-2) or o-fluorobenzoyl analogs (zb-16-14)"}]}
{"smiles": "COc1ccc(N(C(=O)c2ccccc2)S(=O)(=O)c2cc(OC)ccc2OC)cc1", "note": "[BRD9647]", "values": [{"measurement": "toxicity to myeloma cells with and without stromal co-culture", "setting": "[4]", "result": "selectively toxic to stroma-dependent myeloma cells"}, {"measurement": "viability of cell line panel", "setting": "[5]", "result": "inhibited stroma-dependent multiple myeloma (MM) cells, but not most cell lines"}, {"measurement": "sensitivity of MOLP5 cells expressing wild-type AZIN1", "setting": "[6]", "result": "wild-type AZIN1 expression in MOLP5 cells conferred resistance to BRD9647"}, {"measurement": "growth inhibition in presence of excess spermidine", "setting": "[7]", "result": "excess spermidine rescued BRD9647 growth inhibition"}, {"measurement": "gene expression signature of treated cells", "setting": "[8]", "result": "under ER stress or amino acid deprivation"}, {"measurement": "benzoylated lysines in treated cells", "setting": "[9]", "result": "an increase in benzoylated lysines"}]}
{"smiles": "COc1ccc(N(C(=O)c2cc(F)cc(F)c2F)S(=O)(=O)c2cc(OC)ccc2OC)cc1", "note": "[Compound 4]", "values": [{"measurement": "growth inhibition in MOLP5 cells compared with other analogs", "setting": "[3]", "result": "all mono substituted analogs appear to inhibit growth substantially more than the tri-fluorinated analog"}]}
